In data set [1] the test system is PBMCs. Nature of the data set: Treatment of PBMCs from healthy donors with USP10-targeting inhibitors. The data set is classed as cell-based, human. As to conditions: Homo sapiens. The source says:
(§1) Nomo-1, P31-FUJ, and NB4 were obtained from Dr. Gary Gilliland. MV4, 11 cells were obtained from Dr. Anthony Letai. Hel, K562, THP, U937, TF-1 and K052 cells were purchased from the American Type Culture Collection (ATCC) (Manassas, Va., USA). […] Cell lines were submitted for cell line authentication and were authenticated within 6 months of manuscript preparation through cell line short tandem repeat (STR) profiling (DDC Medical, Fairfield, Ohio and Molecular Diagnostics Laboratory, Dana Farber Cancer Institute). […] PBMCs were generously provided by Dr. Steven Treon and Dr. Guang Yang.
(§2) The CellTiter-Glo® assay (Promega, Madison, Wis.) was used for proliferation studies and carried out according to manufacturer instructions. Cell viability is reported as percentage of control (untreated) cells, and error bars represent the standard error of the mean for each data point.

Data set [2] deals with AML primagraft (D835Y+, FLT3-ITD+) cells. The data set can be described thus: Treatment of mutant FLT3-expressing AML primagraft cells ex vivo. The data set is classed as cell-based, human. As to conditions: Homo sapiens, read-out: IC50 (+/−S.D.) AML primagraft (D835Y+, FLT3-ITD+). On the procedure: All animal studies were performed according to protocols approved by the Dana-Farber Cancer Institute's Institutional Animal Care and Use Committee. […] Mice were sacrificed on day 21 of treatment. Bone marrow was flushed from mouse femurs, and spleens and livers were dissected and preserved first in formalin, followed 24 hours later by preservation in 70% ethanol. […] All AML primagraft samples used in the studies described herein were obtained through the Public Repository of Xenografts (proxe.org).
as §2

The target of data set [3] is T1, human USP10 (residues 376-798) (Homo sapiens, UniProt Q14694).
T1 construct: A construct of human USP10 covering residues 376-798 in the pET28a vector; His-tag (cleaved yes); made in house; host or cells: E. coli BL21 (DE3)
T1 sequence (Q14694 376-798): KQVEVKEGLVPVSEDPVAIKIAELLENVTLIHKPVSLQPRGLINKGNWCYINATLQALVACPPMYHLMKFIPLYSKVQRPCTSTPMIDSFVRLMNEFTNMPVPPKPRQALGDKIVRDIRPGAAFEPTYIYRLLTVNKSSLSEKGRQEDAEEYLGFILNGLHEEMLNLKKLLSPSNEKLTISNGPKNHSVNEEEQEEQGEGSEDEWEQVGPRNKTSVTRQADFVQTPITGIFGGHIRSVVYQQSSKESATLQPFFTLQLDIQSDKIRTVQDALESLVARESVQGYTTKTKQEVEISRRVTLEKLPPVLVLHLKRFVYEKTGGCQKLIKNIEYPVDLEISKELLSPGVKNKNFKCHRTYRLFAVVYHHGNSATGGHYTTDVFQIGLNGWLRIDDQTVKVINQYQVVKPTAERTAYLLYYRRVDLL
The data set can be described thus: In vitro USP10 activity assay (Ubiquitin-AMC). The data set is classed as biochemical. As to conditions: ubiquitin-AMC as substrate; purified enzyme; read-out: USP10 biochemical IC50. As to the method:
Protein expression and purification. A construct of human USP10 covering residues 376-798 in the pET28a vector was over-expressed in E. coli BL21 (DE3) in TB medium in the presence of […] of kanamycin. Cells were grown at 37° C. to an OD of 0.8, cooled to 17° C., induced with 500 μM isopropyl-1-thio-D-galactopyranoside, incubated overnight at 17° C., collected by centrifugation, and stored at −80° C. Cell pellets were sonicated in buffer A (50 mM HEPES (pH 7.5), 300 mM NaCl, 10% glycerol, 10 mM Imidazole, and 3 mM BME) and the resulting lysate was centrifuged at 30,000×g for 30 min. Ni-NTA beads (Qiagen) were mixed with lysate supernatant for 30 min and washed with buffer A. Beads were transferred to an FPLC-compatible column and the bound protein was washed with 15% buffer B (50 mM HEPES (pH 7.5), 300 mM NaCl, 10% glycerol, 300 mM Imidazole, and 3 mM BME) and eluted with 100% buffer B. Thrombin was added to the eluted protein and incubated at 4° C. overnight. The sample was then passed through a HiPrep 26/10 desalting column (GE Healthcare) pre-equilibrated with buffer A without imidazole, and the eluted protein was subjected to a second Ni-NTA step to remove His-tag and Thrombin. The eluent was concentrated and passed through a Superdex® 200 10/300GL column (GE Healthcare) in a buffer containing 20 mM HEPES (pH 7.5), 150 mM NaCl, and 1 mM DTT. Fractions were pooled, concentrated to 20 mg/ml, and frozen at −80° C.
In vitro USP10 activity assay. Recombinant USP10, residues 376-798, was tested for its activity in a Ubiquitin-AMC assay in presence or absence of inhibitors. For this assay, 10 nM USP10 were pre-incubated with different concentrations of inhibitors or DMSO as a control in 50 mM HEPES pH7.6, 0.5 mM EDTA, 11 uM ovalbumin, and 5 mM DTT. The reaction was incubated for 6 hours at room temperature prior to the addition of 2 uM Ubiquitin-AMC (Boston Biochem) substrate. The initial rate of the reaction was measured by collecting fluorescence data at one minute intervals over 30-minute period using a CLARIOstar® fluorescence plate reader at excitation and emission wavelength of 345 and 445 nm, respectively. The calculated initial rate values were plotted against inhibitor concentrations to determine IC50 values.

The test system of data set [4] is MOLM14 cells. Nature of the data set: Immunoblot of FLT3, Beclin-1, AKT, ERK1/ERK2 in MOLM14 cells. As to conditions: approximately 23 hours of treatment. The format is cell-based, human. An excerpt:
(§3) The following antibodies were purchased from Cell Signaling Technology (Danvers, Mass.): total AKT (rabbit, #9272) and total p44/42 MAPK (Erk1/2) (3A7) (mouse, #9107) were used at 1:1000 dilution. Anti-GAPDH (D16H-11) XP (R) (rabbit mAb, #5174) was used at 1:1000 dilution. Beclin-1 (rabbit, #3738) was used at 1:1000. USP10 (D7A5) (rabbit, #8501) was used at 1:1000 dilution. P53 (rabbit, #9282) was used at 1:1000 dilution. β-tubulin (rabbit, #2146s) was used 1:1000.
(§4) FLT3/Flk-2 (C-20) (sc-479) and Ub (P4D1) (mouse, sc-8017) were purchased from Santa Cruz Biotechnology, Inc. (Dallas, Tex.) and used at 1:1000 dilution for immunoblotting. Anti-pTyr (mouse, clone 4G10) was purchased from Upstate Biotechnology (Lake Placid, N.Y.) and was used at 1:1000 dilution. Anti-HAUSP/USP7 antibody (rabbit, ab4080) and anti-ubiquitin antibody (rabbit, ab7780) were purchased from Abcam (Cambridge, Mass.) and used at 1:1000 dilution.
(§5) Protein lysate preparation, immunoblotting, and immunoprecipitation were carried out as previously described in Weisberg et al. (2002) Cancer Cell 1:433-443.

Data set [5] deals with USP10. Nature of the data set: USP10 target engagement in cells, labeling with HA-Ub-VS. As to conditions: lysates from live treated cells. The format is cell-based.
Description: Cells were harvested, washed with PBS, and lysed in 1% NP-40, 10% glycerol, 2% sodium orthovanadate, and HALT protease inhibitor cocktail (ThermoFisher). Lysate was diluted to 50 ug in 30 uL lysis buffer with 1% DTT and incubated on ice for 15 minutes. 0.25 ug HA-Ub-VS was added, and the sample was gently rocked at room temperature for 30 minutes, then denatured with LDS sample buffer.
Data set [6] has as its system Ba/F3-FLT3-ITD cells. The data set can be described thus: Proliferation of Ba/F3-FLT3-ITD cells. The data set is classed as cell-based, murine. As to conditions: concentration up to 20 μM; approximately 72 hours.
Excerpt: as §1, §2

Data set [7] relates to Ba/F3-FLT3-ITD cells. The data set can be described thus: Immunoblot of FLT3 / Beclin-1 in Ba/F3-FLT3-ITD cells. The data set is classed as cell-based, murine. As to conditions: concentration up to 20 μM.
Excerpt: as §3, §4, §5

The subject of data set [8] is primary tumor cells from FLT3-ITD positive AML patients and FLT3 mutant primagrafts. Nature of the data set: Survival of primary AML patient cells and FLT3 mutant primagrafts. The data set is classed as cell-based, human. As to conditions: approximately 72 hrs of treatment. An excerpt: The trypan blue exclusion assay has been previously described in Weisberg et al. (2002) Cancer Cell 1:433-443 and was used for quantification of cells prior to seeding for CellTiter-Glo® assays. The CellTiter-Glo® assay (Promega, Madison, Wis.) was used for proliferation studies and carried out according to manufacturer instructions. Cell viability is reported as percentage of control (untreated) cells, and error bars represent the standard error of the mean for each data point.
Mononuclear cells were isolated from samples from AML patients identified as harboring mutant FLT3. Cells were tested in liquid culture (DMEM supplemented with 20% FBS) in the presence of different concentrations of single and combined agents. All blood and bone marrow samples from AML patients were obtained under approval of the Dana Farber Cancer Institute Institutional Review Board.

Data set [9] has as its target USP10 (Homo sapiens, UniProt Q14694). Nature of the data set: MALDI TOF DUB assay with diubiquitin substrate. The format is biochemical. As to conditions: diubiquitin (K11) as substrate. On the procedure: Thirty-one human DUBs were freshly diluted in the reaction buffer (40 mM Tris-HCl, pH 7.6, 5 mM DTT, 0.005% BSA) at different concentrations (see Table 10). […] The enzymes were pre-incubated with the compounds for 30 min at room temperature at 10 μM final concentration. 0.48 μl of di-ubiquitin topoisomers were added to the reaction mixture to initiate the reaction. The reaction was sealed and incubated for 30 min at room temperature and stopped by adding TFA to a final concentration of 2% (v/v).
Mass spectrometry data was acquired on an UltrafleXtreme MALDI-TOF mass spectrometer (Bruker Daltonics) with Compass 1.3 control and processing software. The sample carrier was taught before each analysis to optimize and centre laser shooting. […] Samples were analysed in automatic mode (AutoXecute, Bruker Daltonics). […] An amount of 3,500 shots were summed up in “random walk” and with “large” smartbeam laser focus. Spectra were automatically calibrated on the ^15N-Ub m/z and processed using smoothing (Savitzky-Golay algorithm) and baseline subtraction (‘TopHat’) for reproducible peak annotation on non-resolved isotope distributions: one cycle, 0.2 m/z for the width. For area calculation, the complete isotopic distribution was taken into account. […]

Data set [10] has as its system FLT3-ITD+, D835Y+ AML primagraft. The data set can be described thus: Primagraft study in NSG mice. The data set is classed as in vivo. As to conditions: 15 mg/kg. As to the method: All animal studies were performed according to protocols approved by the Dana-Farber Cancer Institute's Institutional Animal Care and Use Committee. […]. Mice were sacrificed on day 21 of treatment. Bone marrow was flushed from mouse femurs, and spleens and livers were dissected and preserved first in formalin, followed 24 hours later by preservation in 70% ethanol. […]; All AML primagraft samples used in the studies described herein were obtained through the Public Repository of Xenografts (proxe.org).

The test system of data set [11] is Ba/F3-FLT3-ITD-luc+ cells. The data set can be described thus: Non-invasive in vivo bioluminescence study.
Setting [12] is: 24 hr assay, PBMC#1, read-out: IC50 (+/−S.D.) PBMC#1.
The mark [13] stands for this setting: 24 hr assay, PBMC#2, read-out: IC50 (+/−S.D.) PBMC#2.

Structures are written as SMILES. Entries after “also recorded” stand apart in the source; their conditions may differ. Where two headings read alike, the source gives them in different places.

USP10 (Homo sapiens, UniProt Q14694), sequence (Q14694 whole entry): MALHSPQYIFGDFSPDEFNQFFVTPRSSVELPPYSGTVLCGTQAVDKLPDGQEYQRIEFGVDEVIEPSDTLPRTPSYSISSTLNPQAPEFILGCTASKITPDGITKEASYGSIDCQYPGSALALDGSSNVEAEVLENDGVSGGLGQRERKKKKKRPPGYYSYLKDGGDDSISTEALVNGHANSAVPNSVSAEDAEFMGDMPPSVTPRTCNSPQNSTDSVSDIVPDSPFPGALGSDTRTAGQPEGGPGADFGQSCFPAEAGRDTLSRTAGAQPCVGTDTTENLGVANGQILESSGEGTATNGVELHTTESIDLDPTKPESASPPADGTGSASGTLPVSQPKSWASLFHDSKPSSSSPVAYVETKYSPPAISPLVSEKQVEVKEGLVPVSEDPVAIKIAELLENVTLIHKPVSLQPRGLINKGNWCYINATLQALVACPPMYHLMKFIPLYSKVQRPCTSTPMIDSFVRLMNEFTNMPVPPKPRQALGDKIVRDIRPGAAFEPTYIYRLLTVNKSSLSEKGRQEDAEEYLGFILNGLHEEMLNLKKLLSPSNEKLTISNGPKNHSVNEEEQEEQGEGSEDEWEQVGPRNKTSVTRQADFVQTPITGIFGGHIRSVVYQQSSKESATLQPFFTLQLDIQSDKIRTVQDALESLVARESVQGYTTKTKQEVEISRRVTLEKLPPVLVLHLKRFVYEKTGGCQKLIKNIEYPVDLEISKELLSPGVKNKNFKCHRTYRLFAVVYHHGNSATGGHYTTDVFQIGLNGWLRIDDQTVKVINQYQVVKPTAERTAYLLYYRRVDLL

For the molecule `CS(=O)(=O)c1ccc(NC(=O)c2cc(C#N)c(Sc3c(Cl)cncc3Cl)s2)cc1` [1247825-37-1, reference compound], the IC50 in data set [1] (setting [12]) amounted to 14.9 µM; in [1] (setting [13]), 16.6 µM; in [2] (24 hr assay) it was 2.5 µM; in data set [3], 36 µM. Further, the “Expression of AKT and ERK1/ERK2 downstream of FLT3” value in data set [4] is given as “unchanged”. Moreover, the “Inhibitor concentration blocking USP10 labeling by HA-Ub-VS” value in data set [5] is reported as “low micromolar range”.
Consider `O=C(CCc1ccccc1)N1CCC(O)(Cn2cnc3cc(Cl)ccc3c2=O)CC1` [Compound 2], for which the Cell viability result in data set [6] was “little impact on cell viability”. Also, the FLT3 levels result in [7] is recorded as “did not lead to reduced FLT3 levels”. Moreover, the “Survival of patient samples and primagrafts” value in data set [8] is given as “little to no effect”.
`CC(=O)c1cc([N+](=O)[O-])c(Sc2ccc(F)cc2F)s1` [P22077]: the IC50 in data set [1] (setting [12]) amounted to 10.6 µM; in data set [1] (setting [13]), 7.8 µM; in data set [1] (72 hr assay, PBMC#1, read-out: IC50 (+/−S.D.) PBMC#1), 6.9 µM; in data set [1] (72 hr assay, PBMC#2, read-out: IC50 (+/−S.D.) PBMC#2), 4.4 µM; in [2] (24 h), 6.9 µM; in data set [2] (72 h), 2.6 µM. In addition, the IC50 is 15 µM in data set [3] and 6 µM in data set [9]. Moreover, in data set [10] (21-day treatment period), the Tolerability entry is recorded as “generally well-tolerated; also recorded: generally well tolerated”. Further, in [10] (21 days, same for vehicle-treated, none below 15% weight loss), the Average weight loss is 2 to 3 g. Further, the “Reduction in luciferase-positive signal in bone marrow versus vehicle” value in [11] (50 mg/kg IP BID, 4 days) was “approximately 2 fold”. Further, the “Lower percentage of FLT3 expression in bone marrow versus vehicle” value in data set [11] (50 mg/kg IP BID, 4 days, flow cytometry) was “approximately 2 fold”. In addition, the Vital organ toxicity entry in data set [11] (mouse studies) is recorded as “no evidence of vital organ toxicity”. Besides, the “Body weight versus vehicle” value in data set [11] (treated for up to 11 days) is listed as “no significant difference in weight”.
